Measured values taken from PMC11728001, “Design, Synthesis, and Biological Evaluation of Novel Urea-Containing Carnosic Acid Derivatives with Anticancer Activity” (International Journal of Molecular Sciences, 2024).

Legend:
Format in all cases: cell-based
SW480 cells = experiment: Cell cycle assay (PI, FACS); conditions: SW480, IC50 concentration
Experimental: SW480 cells were seeded in 6-well plates and treated as described for the apoptosis assay. After centrifugation, the cells were resuspended in 500 µL DPBS and added dropwise to 4.5 mL 70% (v/v) cold ethanol. The cell suspension was kept at −20 °C for a minimum of 4 h. The cell suspension was then centrifuged, washed with cold DPBS, resuspended in 360 µL DPBS containing 10 µL RNase (10 mg/mL), and incubated for 1 h, at 37 °C, with agitation. Before FACS analysis, 20 µL PI solution (1 mg/mL) was added to the samples. FACS analysis was performed using a Gallios flow cytometer (Beckman Coulter, Brea, CA, USA) at 488 nm. Data were acquired from 1 × 10^4 cells and subsequently analyzed using the multicycle software provided by Phoenix Flow Systems (San Diego, CA, USA).

[1] = test system: BJ non-tumoral fibroblast cell line; experiment: MTT cell viability assay, BJ; conditions: 72 h incubation
Experimental: (§1) The effect of the compounds on cell viability was evaluated using the MTT assay. HCT116 (3000 cells/well), SW620 (8000 cells/well), SW480 (6000 cells/well), Caco-2 (4000 cells/well), A375 (1500 cells/well), MiaPaca-2 (2000 cells/well), and BJ (10,000 cells/well) cells were seeded in 96-well plates. After 24 h, the growth medium was replaced with a fresh medium containing the desired concentration of the compound or DMSO (control). After 72 h of incubation, the supernatant was removed and 100 µL of a mixture (1:1) of filtered MTT solution (1 mg/mL in PBS) with FBS-free medium was added to each well. After 1 h of incubation at 37 °C, the mixture was removed and 100 µL of DMSO was added to each well to dissolve the formed formazan crystals. Absorbance was immediately measured at 570 nm using a Benchmark Plus Microplate Reader (Bio-Rad Laboratories, Hercules, CA, USA). IC50 values were calculated using GraphPad Prism 9 software (GraphPad Software, San Diego, CA, USA) and expressed as the mean ± standard deviation (SD) of at least three independent experiments.

[2] = test system: intracellular ROS in SW480 cells; experiment: ROS determination assay (H2DCFDA, flow cytometry); conditions: SW480, IC50 concentration
Experimental: Intracellular ROS levels were assessed by flow cytometry using H2DCFDA probe. SW480 cells were cultured in 6-well plates and treated according to the procedure described for the apoptosis assay. After incubation for 24, 48, and 72 h, adherent cells were collected by centrifugation after trypsinization and washed with DPBS. The cells were then incubated with 1 mL HBSS containing 2 mM L-glutamine and 50 µM H2DCFDA probe at 37 °C for 45 min. in a cell culture incubator. Next, the cellular suspension was washed with 2 mL of DPBS and the cells were collected by centrifugation. Finally, the cells were gently resuspended in 350 µL DPBS containing 20 µg/mL PI solution (1 mg/mL). The intracellular internalized probe reacts with ROS and undergoes transformation into 2′,7′-dichlorofluorescein (DCF). DCF fluorescence data were collected from 1 × 10^4 PI-negative cells by using a Gallios flow cytometer (Beckman Coulter, Brea, CA, USA) at 520 nm.

SW620 cells = experiment: MTT cell viability assay, SW620; conditions: Homo sapiens, SW-620, 72 h incubation, mean ± SD
Experimental: as §1

[3] = test system: MiaPaca-2 pancreatic cancer cells; experiment: MTT cell viability assay, MiaPaca-2; conditions: Homo sapiens, MIA PaCa-2, 72 h incubation, mean ± SD
Experimental: as §1

CDK6 = experiment: Western blot, CDK6 expression in SW480 cells; conditions: SW480, IC50 concentration, 24, 48 and 72 h
Experimental: SW480 cells (1.68 × 10^5 cells/well) were seeded in 6-well plates and incubated at 37 °C for 24 h. […] At the end of the treatment period, cells were washed twice with ice-cold DPBS and incubated for 30 min. at 4 °C with lysis buffer containing 20 mM Tris-HCl (pH 7.5), 1 mM DTT, 0.2% Triton X-100, 1 mM Na-EDTA, 0.5 mM sodium deoxycholate, 1% proteases inhibitor cocktail, and 0.5% phosphatases inhibitor cocktail. The cells were scraped, sonicated, and centrifuged at 12,000× g for 20 min. at 4 °C. The supernatants were recovered, and the protein concentration was quantified using Pierce^TM BCA protein assay reagents A and B and Pierce^TM bovine serum albumin standard ampules (2 mg/mL).
Membranes were blocked with 5% skim milk in PBS-Tween-20 (0.1%) for 1 h at room temperature, following its incubation with the specific primary antibodies overnight at 4 °C (CDK4, CDK6, and SOD2 (MnSOD)). Exceptionally, the primary antibody against actin was only incubated for 30 min. at room temperature. The membranes were then washed with PBS-Tween-20 (0.1%) and incubated for 40 min. with an anti-mouse secondary antibody or for 1 h with an anti-rabbit secondary antibody. After incubation, the membranes were washed again with PBS-Tween-20 (0.1%) and treated with the Immobilon Western Chemiluminescent HRP Substrate Kit. […]

A375 melanoma cells = experiment: MTT cell viability assay, A375; conditions: Homo sapiens, A-375, 72 h incubation, mean ± SD
Experimental: as §1

SMILES: CC(=O)Oc1c(C(C)C)cc2c(c1OC(C)=O)[C@@]1(NC(=O)NCCc3cccc(Cl)c3)CCCC(C)(C)[C@@H]1CC2 [Compound 14, (4bR,8aS)-4b-(3-(3-chlorophenethyl)ureido)-2-isopropyl-8,8-dimethyl-4b,5,6,7,8,8a,9,10-octahydrophenanthrene-3,4-diyl diacetate]
- percentage of cells in the G0/G1 phase (SW480 cells; 24 h, control 50.3%): 71%
- percentage of cells in the G0/G1 phase (SW480 cells; at the three time points (24, 48, 72 h)): higher than 66.6%
- IC50 [1]: > 25 µM
- percentage of intracellular ROS compared with control ([2]; 24 h): 56%
- percentage of intracellular ROS compared with control ([2]; 48 h): 71%
- change in ROS levels ([2]; 72 h): no significant changes
- IC50 (SW620 cells): 6.1 ± 0.3 µM
- IC50 [3]: 9 ± 0.8 µM
- CDK6 expression versus untreated cells (CDK6): downregulation
- IC50 (A375 melanoma cells): 7 ± 0.4 µM
